Structures can show the parent of a compound that is named as a salt.

The results in this text go back to US12404241B2 (Celgene Corporation, priority 2018, dated 2025).

This assay deals with T1, AR (Homo sapiens, UniProt P10275).
T1 construct: endogenous in cells; host or cells: VCaP cells
T1 sequence (P10275 1-920): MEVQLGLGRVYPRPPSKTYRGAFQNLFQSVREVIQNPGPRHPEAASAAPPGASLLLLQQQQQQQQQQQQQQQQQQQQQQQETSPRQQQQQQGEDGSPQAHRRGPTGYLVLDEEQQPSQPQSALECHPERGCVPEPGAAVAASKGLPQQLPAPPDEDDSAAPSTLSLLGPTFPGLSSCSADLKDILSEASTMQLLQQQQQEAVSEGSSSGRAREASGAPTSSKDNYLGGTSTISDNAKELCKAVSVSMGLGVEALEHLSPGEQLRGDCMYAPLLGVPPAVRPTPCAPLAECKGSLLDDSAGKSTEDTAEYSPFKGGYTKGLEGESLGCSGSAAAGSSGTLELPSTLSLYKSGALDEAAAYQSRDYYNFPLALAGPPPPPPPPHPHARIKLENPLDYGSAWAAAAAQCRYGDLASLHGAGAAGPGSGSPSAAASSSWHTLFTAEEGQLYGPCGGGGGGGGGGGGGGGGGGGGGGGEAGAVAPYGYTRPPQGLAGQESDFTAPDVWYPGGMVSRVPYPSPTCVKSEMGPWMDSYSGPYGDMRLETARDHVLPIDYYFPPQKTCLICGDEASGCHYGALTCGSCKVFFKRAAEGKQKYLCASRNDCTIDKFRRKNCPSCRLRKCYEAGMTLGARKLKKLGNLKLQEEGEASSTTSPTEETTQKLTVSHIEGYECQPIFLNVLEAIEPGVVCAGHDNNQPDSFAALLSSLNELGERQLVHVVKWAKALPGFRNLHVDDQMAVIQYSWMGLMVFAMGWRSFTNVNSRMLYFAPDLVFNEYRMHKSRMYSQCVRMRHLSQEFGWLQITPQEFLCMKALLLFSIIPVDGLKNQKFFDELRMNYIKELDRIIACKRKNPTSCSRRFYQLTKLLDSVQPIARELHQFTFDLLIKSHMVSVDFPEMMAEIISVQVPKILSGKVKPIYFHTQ
Briefly: VCAP AR Degradation Assay. Type of assay: cell-based. Conditions: for Y (AR degradation efficiency, % of DMSO control): class symbols *; for DC50: class symbols A-C, read-out: DC50. An outline of the steps:
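Compounds were plated as 10-point 1:3 series reaching 5 μM final, then VCaP cells were seeded onto them and incubated 24 h at 37 °C. Cells were lysed cold, and total AR was measured by sandwich ELISA relative to 0.1% DMSO wells.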

On to `CC(C)c1cc(N2C(=S)N(c3ccc(C#N)c(C(F)(F)F)c3)C(=O)C2(C)C)ccc1OCCN1CCN(CC(=O)Nc2cc(Cl)cc(NC3CCC(=O)NC3=O)c2)CC1` (stereo not drawn) [Example 94, N-(3-chloro-5-(2,6-dioxopiperidin-3-ylamino)phenyl)-2-(4-(2-(4-(3-(4-cyano-3-(trifluoromethyl)phenyl)-5,5-dimethyl-4-oxo-2-thioxoimidazolidin-1-yl)-2-isopropylphenoxy)ethyl)piperazin-1-yl)acetamide], for which the “Y (AR degradation efficiency, % of DMSO control)” value is on record as “** (25%<Y<=35%)” and the DC50 (as a rule, the midpoint of the concentration-degradation curve) is 100 to 500 nM.
On the same counts, the results for `CCc1cc(N2C(=S)N(c3ccc(C#N)c(C(F)(F)F)c3)C(=O)C2(C)C)ccc1OCCN1CCN(CC(=O)Nc2cccc(NC3CCC(=O)NC3=O)c2Cl)CC1` (stereo not drawn) [Example 35, hydrochloride] are “** (25%<Y<=35%)” and 100 to 500 nM.
On the same counts, the results for `CC(O)c1cc(N2C(=S)N(c3cnc(C#N)c(C(F)(F)F)c3)C(=O)C2(C)C)ccc1OCCN1CCN(CC(=O)Nc2cc(Cl)cc(NC3CCC(=O)NC3=O)c2)CC1` (stereo not drawn) [Example 92, N-(3-chloro-5-(2,6-dioxopiperidin-3-ylamino)phenyl)-2-(4-(2-(4-(3-(6-cyano-5-(trifluoromethyl)pyridin-3-yl)-5,5-dimethyl-4-oxo-2-thioxoimidazolidin-1-yl)-2-(1-hydroxyethyl)phenoxy)ethyl)piperazin-1-yl)acetamide] are “*** (35%<Y<50%)” and 100 to 500 nM.
In the case of `CCc1cc(N2C(=S)N(c3ccc(C#N)c(C(F)(F)F)c3)C(=O)C2(C)C)ccc1CCCN1C[C@@H](C)N(CC(=O)Nc2cccc(NC3CCC(=O)NC3=O)c2)[C@@H](C)C1` (stereo partly drawn) [Example 284, 2-((2R,6S)-4-(3-(4-(3-(4-cyano-3-(trifluoromethyl)phenyl)-5,5-dimethyl-4-oxo-2-thioxoimidazolidin-1-yl)-2-ethylphenyl)propyl)-2,6-dimethylpiperazin-1-yl)-N-(3-(2,6-dioxopiperidin-3-ylamino)phenyl)acetamide], the “Y (AR degradation efficiency, % of DMSO control)” value is reported as “* (0<Y<=25%)” and the DC50 is below 100 nM.
On the same counts, the results for `CCc1cc(N2C(=S)N(c3ccc(C#N)c(C(F)(F)F)c3)C(=O)C2(C)C)ccc1CCCN1C[C@@H](C)N(CC(=O)Nc2cccc(NC3CCC(=O)NC3=O)c2)C[C@H]1C` (stereo partly drawn) [Example 273, 2-((2R,5R)-4-(3-(4-(3-(4-cyano-3-(trifluoromethyl)phenyl)-5,5-dimethyl-4-oxo-2-thioxoimidazolidin-1-yl)-2-ethylphenyl)propyl)-2,5-dimethylpiperazin-1-yl)-N-(3-(2,6-dioxopiperidin-3-ylamino)phenyl)acetamide] are “* (0<Y<=25%)” and below 100 nM.
As for `Cc1cc(NC(=O)CN2CCN(CCOc3ccc(N4C(=S)N(c5ccc(C#N)c(C(F)(F)F)c5)C(=O)C4(C)C)cc3F)CC2)cc(NC2CCC(=O)NC2=O)c1` (stereo not drawn) [Example 15, hydrochloride], the “Y (AR degradation efficiency, % of DMSO control)” value is on record as “** (25%<Y<=35%)” and the DC50 was below 100 nM.
On the same counts, the results for `C[C@@H]1CN(CCOc2ccc(N3C(=S)N(c4cnc(C#N)c(C(F)(F)F)c4)C(=O)C34CCC4)cc2C2CC2)C[C@H](C)N1CC(=O)Nc1cc(NC2CCC(=O)NC2=O)ccc1F` (stereo partly drawn) [Example 198, 2-((2S,6R)-4-(2-(4-(7-(6-cyano-5-(trifluoromethyl)pyridin-3-yl)-8-oxo-6-thioxo-5,7-diazaspiro[3.4]octan-5-yl)-2-cyclopropylphenoxy)ethyl)-2,6-dimethylpiperazin-1-yl)-N-(5-(2,6-dioxopiperidin-3-ylamino)-2-fluorophenyl)acetamide] are “* (0<Y<=25%)” and below 100 nM.
On the same counts, the results for `CC(F)(F)c1cc(N2C(=S)N(c3ccc(C#N)c(C(F)(F)F)c3)C(=O)C2(C)C)ccc1OCCN1CCN(CC(=O)Nc2cccc(NC3CCC(=O)NC3=O)c2)CC1` (stereo not drawn) [Example 59, 2-(4-(2-(4-(3-(4-cyano-3-(trifluoromethyl)phenyl)-5,5-dimethyl-4-oxo-2-thioxoimidazolidin-1-yl)-2-(1,1-difluoroethyl)phenoxy)ethyl)piperazin-1-yl)-N-(3-(2,6-dioxopiperidin-3-ylamino)phenyl)acetamide] are “* (0<Y<=25%)” and below 100 nM.
On the same counts, the results for `CCc1cc(N2C(=S)N(c3ccc(C#N)c(C(F)(F)F)c3)C(=O)C2(C)C)ccc1OCCN1CCN([C@H](C)C(=O)Nc2cccc(NC3CCC(=O)NC3=O)c2)CC1` (stereo partly drawn) [Example 58, (2R)-2-(4-(2-(4-(3-(4-cyano-3-(trifluoromethyl)phenyl)-5,5-dimethyl-4-oxo-2-thioxoimidazolidin-1-yl)-2-ethylphenoxy)ethyl)piperazin-1-yl)-N-(3-(2,6-dioxopiperidin-3-ylamino)phenyl)propanamide] are “* (0<Y<=25%)” and below 100 nM.
Take `CC(F)(F)c1cc(N2C(=S)N(c3cnc(C#N)c(C(F)(F)F)c3)C(=O)C2(C)C)ccc1OCCN1CCN(CC(=O)Nc2cc(F)cc(NC3CCC(=O)NC3=O)c2)CC1` (stereo not drawn) [Example 80, 2-(4-(2-(4-(3-(6-cyano-5-(trifluoromethyl)pyridin-3-yl)-5,5-dimethyl-4-oxo-2-thioxoimidazolidin-1-yl)-2-(1,1-difluoroethyl)phenoxy)ethyl)piperazin-1-yl)-N-(3-(2,6-dioxopiperidin-3-ylamino)-5-fluorophenyl)acetamide]: the “Y (AR degradation efficiency, % of DMSO control)” value is on record as “* (0<Y<=25%)” and the DC50 is below 100 nM.
With `CC1(C)C(=O)N(c2ccc(C#N)c(C(F)(F)F)c2)C(=S)N1c1ccc(OCCN2CCN(CC(=O)Nc3cc(NC4CCC(=O)NC4=O)ccc3F)CC2)c(CCF)c1` (stereo not drawn) [Example 141, 2-(4-(2-(4-(3-(4-cyano-3-(trifluoromethyl)phenyl)-5,5-dimethyl-4-oxo-2-thioxoimidazolidin-1-yl)-2-(2-fluoroethyl)phenoxy)ethyl)piperazin-1-yl)-N-(5-(2,6-dioxopiperidin-3-ylamino)-2-fluorophenyl)acetamide], the “Y (AR degradation efficiency, % of DMSO control)” value is given as “* (0<Y<=25%)” and the DC50 is below 100 nM.
On the same counts, the results for `CCc1cc(N2C(=S)N(c3ccc(C#N)c(C(F)(F)F)c3)C(=O)C2(C)C)ccc1OCCN1C[C@@H](C)N(CC(=O)Nc2cc(Cl)cc(NC3CCC(=O)NC3=O)c2)C[C@H]1C` (stereo partly drawn) [Example 128, N-(3-chloro-5-(2,6-dioxopiperidin-3-ylamino)phenyl)-2-((2R,5R)-4-(2-(4-(3-(4-cyano-3-(trifluoromethyl)phenyl)-5,5-dimethyl-4-oxo-2-thioxoimidazolidin-1-yl)-2-ethylphenoxy)ethyl)-2,5-dimethylpiperazin-1-yl)acetamide] are “* (0<Y<=25%)” and below 100 nM.
The like results for `CCc1cc(N2C(=S)N(c3cnc(C#N)c(C(F)(F)F)c3)C(=O)C2(C)C)ccc1OCCN1CCN([C@@H](C)C(=O)Nc2cc(F)cc(NC3CCC(=O)NC3=O)c2)CC1` (stereo partly drawn) [Example 116, (2S)-2-(4-(2-(4-(3-(6-cyano-5-(trifluoromethyl)pyridin-3-yl)-5,5-dimethyl-4-oxo-2-thioxoimidazolidin-1-yl)-2-ethylphenoxy)ethyl)piperazin-1-yl)-N-(3-(2,6-dioxopiperidin-3-ylamino)-5-fluorophenyl)propanamide] were, in that order, “* (0<Y<=25%)” and below 100 nM.
As for `C[C@@H]1CN(CCOc2ccc(N3C(=S)N(c4ccc(C#N)c(C(F)(F)F)c4)C(=O)C34CCCC4)cc2C2CC2)C[C@H](C)N1CC(=O)Nc1cccc(NC2CCC(=O)NC2=O)c1` (stereo partly drawn) [Example 266, 2-((2S,6R)-4-(2-(4-(3-(4-cyano-3-(trifluoromethyl)phenyl)-4-oxo-2-thioxo-1,3-diazaspiro[4.4]nonan-1-yl)-2-cyclopropylphenoxy)ethyl)-2,6-dimethylpiperazin-1-yl)-N-(3-(2,6-dioxopiperidin-3-ylamino)phenyl)acetamide], the “Y (AR degradation efficiency, % of DMSO control)” value is listed as “* (0<Y<=25%)” and the DC50 was below 100 nM.
On the same counts, the results for `CCc1cc(N2C(=S)N(c3cnc(C#N)c(C(F)(F)F)c3)C(=O)C2(C)C)ccc1OCCN1CCN([C@@H](C)C(=O)Nc2cccc(NC3CCC(=O)NC3=O)c2)CC1` (stereo partly drawn) [Example 118, (2S)-2-(4-(2-(4-(3-(6-cyano-5-(trifluoromethyl)pyridin-3-yl)-5,5-dimethyl-4-oxo-2-thioxoimidazolidin-1-yl)-2-ethylphenoxy)ethyl)piperazin-1-yl)-N-(3-(2,6-dioxopiperidin-3-ylamino)phenyl)propanamide] are “* (0<Y<=25%)” and below 100 nM.
